# The source made the active and inactive calls. No cut-off for these calls is given here.
# Key:
# [1] = molecular target: T1, Oxysterols receptor LXR-alpha (Homo sapiens) (UniProt Q13133); assay: Binding affinity to human LXRalpha at 4 uM by TR-FRET assay
# T1 sequence (whole entry): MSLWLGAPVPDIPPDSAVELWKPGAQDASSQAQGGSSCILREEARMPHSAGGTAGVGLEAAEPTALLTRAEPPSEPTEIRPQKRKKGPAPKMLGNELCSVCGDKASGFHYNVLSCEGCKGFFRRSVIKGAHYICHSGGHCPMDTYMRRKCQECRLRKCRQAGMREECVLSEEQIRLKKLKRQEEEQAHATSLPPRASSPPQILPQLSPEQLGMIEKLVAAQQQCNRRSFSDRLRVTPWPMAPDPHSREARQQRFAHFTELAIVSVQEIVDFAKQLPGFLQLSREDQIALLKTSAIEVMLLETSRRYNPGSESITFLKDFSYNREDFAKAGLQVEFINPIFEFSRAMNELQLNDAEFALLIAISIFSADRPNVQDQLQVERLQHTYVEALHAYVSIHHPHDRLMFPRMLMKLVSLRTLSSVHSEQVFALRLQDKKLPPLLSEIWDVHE
# [2] = molecular target: Peroxisome proliferator-activated receptor delta (Homo sapiens) (UniProt Q03181); assay: Antagonist activity at human GST-tagged PPARdelta LBD assessed as reduction in GW501516-induced fluorescein-C33 coactivator recruitment at 1 uM by TR-FRET assay relative to control
# [3] = molecular target: T2, Peroxisome proliferator-activated receptor alpha (Homo sapiens) (UniProt Q07869); assay: Displacement of Fluormone-Pan-PPAR Green from human GST-tagged PPARalpha LBD at 20 uM by TR-FRET assay relative to control
# T2 sequence (whole entry): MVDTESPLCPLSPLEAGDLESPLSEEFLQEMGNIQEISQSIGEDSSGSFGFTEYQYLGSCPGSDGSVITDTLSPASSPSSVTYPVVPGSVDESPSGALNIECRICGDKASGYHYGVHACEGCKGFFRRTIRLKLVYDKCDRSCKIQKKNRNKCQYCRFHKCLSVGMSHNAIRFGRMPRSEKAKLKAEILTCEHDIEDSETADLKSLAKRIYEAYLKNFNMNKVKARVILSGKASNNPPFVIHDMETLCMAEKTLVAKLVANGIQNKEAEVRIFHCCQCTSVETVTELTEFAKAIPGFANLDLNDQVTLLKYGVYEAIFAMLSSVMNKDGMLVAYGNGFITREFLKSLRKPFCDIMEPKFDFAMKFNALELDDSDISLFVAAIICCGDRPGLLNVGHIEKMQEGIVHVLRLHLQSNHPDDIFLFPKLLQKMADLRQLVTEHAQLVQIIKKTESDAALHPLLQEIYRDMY
# [4] = molecular target: T3, Peroxisome proliferator-activated receptor delta (Homo sapiens) (UniProt Q03181); assay: Transactivation of human GST-tagged PPARdelta LBD assessed as fluorescein-C33 coactivator recruitment at 10 uM by TR-FRET assay
# T3 sequence (whole entry): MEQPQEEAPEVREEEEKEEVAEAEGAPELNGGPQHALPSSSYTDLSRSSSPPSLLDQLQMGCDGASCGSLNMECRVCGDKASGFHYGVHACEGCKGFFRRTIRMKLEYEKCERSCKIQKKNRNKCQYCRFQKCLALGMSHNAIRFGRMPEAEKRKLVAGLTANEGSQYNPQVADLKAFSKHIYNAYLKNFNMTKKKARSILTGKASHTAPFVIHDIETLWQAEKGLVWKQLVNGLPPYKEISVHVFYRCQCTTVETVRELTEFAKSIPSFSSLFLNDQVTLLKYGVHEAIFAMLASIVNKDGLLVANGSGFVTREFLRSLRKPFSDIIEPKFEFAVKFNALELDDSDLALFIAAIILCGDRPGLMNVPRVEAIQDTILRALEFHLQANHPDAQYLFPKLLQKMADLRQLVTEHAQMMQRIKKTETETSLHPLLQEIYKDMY
# [5] = molecular target: T3, Peroxisome proliferator-activated receptor delta (Homo sapiens); assay: Displacement of Fluormone-Pan-PPAR Green from human GST-tagged PPARdelta LBD at 20 uM by TR-FRET assay relative to control
# [6] = molecular target: T3, Peroxisome proliferator-activated receptor delta (Homo sapiens); assay: Displacement of Fluormone-Pan-PPAR Green from human GST-tagged PPARdelta LBD by TR-FRET assay
# [7] = molecular target: T3, Peroxisome proliferator-activated receptor delta (Homo sapiens); assay: Displacement of Fluormone-Pan-PPAR Green from human GST-tagged PPARdelta LBD at 4 uM by TR-FRET assay relative to control
# Mus musculus = assay: Antidiabetic activity in STZ-induced diabetic C57BL/6J mouse assessed as insulin sensitivity by measuring reduction of serum glucose levels at 20 mg/kg,po for 5 days measured at 1 and 4 hrs post last dose; assay type: functional, organism-based
# [8] = molecular target: Cyclin-dependent kinase 5/CDK5 activator 1 (Homo sapiens) (UniProt Q00535+Q15078); assay: Inhibition of human CDK5/p35 up to 20 uM using histone H1 as substrate after 40 mins in presence of [gamma32P]ATP by scintillation counting; assay type: protein-complex assay
# [9] = molecular target: T2, Peroxisome proliferator-activated receptor alpha (Homo sapiens); assay: Displacement of Fluormone-Pan-PPAR Green from human GST-tagged PPARalpha LBD at 4 uM by TR-FRET assay relative to control
# Mesenchymal stem cell = assay: Induction of adipogenesis in human bone marrow-derived mesenchymal stem cells assessed as increase in adiponectin production at 20.4 uM after 7 days in presence of IDX; assay type: functional, cell-based
# [10] = molecular target: T4, Glucocorticoid receptor (Homo sapiens) (UniProt P04150); assay: Displacement of Fluormone-GS1 from human GST-tagged glucocorticoid receptor LBD at 4 uM by TR-FRET assay
# T4 sequence (whole entry): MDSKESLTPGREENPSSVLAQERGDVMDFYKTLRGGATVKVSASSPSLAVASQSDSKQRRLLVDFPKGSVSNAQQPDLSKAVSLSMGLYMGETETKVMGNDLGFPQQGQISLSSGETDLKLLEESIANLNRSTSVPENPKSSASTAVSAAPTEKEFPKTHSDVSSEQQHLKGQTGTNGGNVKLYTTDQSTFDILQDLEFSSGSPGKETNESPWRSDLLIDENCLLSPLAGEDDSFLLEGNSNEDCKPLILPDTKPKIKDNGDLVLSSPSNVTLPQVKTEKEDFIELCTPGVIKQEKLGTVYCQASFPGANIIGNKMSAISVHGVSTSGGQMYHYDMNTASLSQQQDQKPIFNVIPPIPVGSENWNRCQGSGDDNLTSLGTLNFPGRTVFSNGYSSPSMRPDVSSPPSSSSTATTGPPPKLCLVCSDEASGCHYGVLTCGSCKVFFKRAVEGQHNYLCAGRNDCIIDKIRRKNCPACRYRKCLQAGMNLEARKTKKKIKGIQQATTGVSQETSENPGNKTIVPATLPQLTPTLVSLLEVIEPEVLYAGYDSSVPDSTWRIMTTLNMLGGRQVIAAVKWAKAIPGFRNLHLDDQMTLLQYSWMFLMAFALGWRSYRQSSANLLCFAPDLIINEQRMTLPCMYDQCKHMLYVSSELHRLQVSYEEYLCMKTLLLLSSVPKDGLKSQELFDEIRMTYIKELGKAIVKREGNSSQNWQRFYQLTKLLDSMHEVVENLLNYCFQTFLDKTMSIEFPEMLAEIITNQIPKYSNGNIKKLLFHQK
# Cyclin-dependent kinase 5/CDK5 activator 1 (Homo sapiens), sequence (Q00535 whole entry, the tested form may be a part): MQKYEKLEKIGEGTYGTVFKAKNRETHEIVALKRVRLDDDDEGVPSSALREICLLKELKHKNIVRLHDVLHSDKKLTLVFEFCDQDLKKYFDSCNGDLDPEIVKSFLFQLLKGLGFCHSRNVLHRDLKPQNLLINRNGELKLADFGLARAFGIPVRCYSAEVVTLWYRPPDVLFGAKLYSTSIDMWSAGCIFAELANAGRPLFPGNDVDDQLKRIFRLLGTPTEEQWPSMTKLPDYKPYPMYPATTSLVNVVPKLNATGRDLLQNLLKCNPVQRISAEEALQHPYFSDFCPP
# Cyclin-dependent kinase 5/CDK5 activator 1 (Homo sapiens), sequence (Q15078 99-307 partner limits assumed): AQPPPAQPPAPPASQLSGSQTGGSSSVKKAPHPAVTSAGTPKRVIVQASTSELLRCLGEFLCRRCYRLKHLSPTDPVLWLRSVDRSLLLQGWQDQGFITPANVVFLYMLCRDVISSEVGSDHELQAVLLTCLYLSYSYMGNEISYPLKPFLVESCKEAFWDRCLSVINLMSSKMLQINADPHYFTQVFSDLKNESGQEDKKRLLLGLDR
structure (smiles),measurement,setting,value
CNC(=O)[C@H]1O[C@@H](n2cnc3c(NCc4cccc(I)c4)ncnc32)[C@H](O)[C@@H]1O [IB-MECA],Activity,[1],inactive
same,inhibition,[2],14%
same,inhibition,[3],16%
same,Activity,[4],inactive
same,inhibition,[5],48.3%
same,inhibition,[6],Dose-dependent effect
same,inhibition,[7],26%
same,Activity,Mus musculus,Active
same,inhibition,[8],inactive
same,inhibition,[9],inactive
same,Activity,Mesenchymal stem cell,Active
same,inhibition,[10],inactive

# Source: ChEMBL document CHEMBL4017496 (J Med Chem, 2017)
